Reference: patent US11986540B2, “Compositions including pafolacianine for the identification of malignant lesions” (ON TARGET LABORATORIES, LLC., priority 2022, dated 2024)

What was measured:
[1] = tested on: FR-positive KB cell tumor xenografts; test: Whole body imaging and tissue distribution, FR-positive KB tumor xenografts; format: in vivo, mice
Method: Whole body imaging and tissue distribution of pafolacianine and OTL0039 was performed in female nu/nu mice bearing FR-positive KB cell tumor xenografts. […] This observation was consistent with the lower binding affinity of the D-isomer for FR compared with the L-isomer. Tumor fluorescence was brighter in mice receiving pafolacianine compared with other folate-conjugated near infrared dyes such as LS288, IR800 and ZW800.
The optimal dose range for pafolacianine with respect to tumor-to-background ratio in FR-positive tumor-bearing mice was 1 to 30 nmol/mouse, with lower fluorescence intensity observed in tumors at a lower dose (0.3 nmol) and higher fluorescence intensity observed in other tissues at doses above 30 nmol. In a second experiment, pafolacianine whole body imaging and tissue distribution was examined again; however, this experiment was performed in female nu/nu mice bearing FR-negative A549 cell tumor xenografts.

[2] = Single IV dose toxicokinetics in dogs; format: in vivo; conditions: for AUC(0-t) / C0: dog, in vivo
Method: Following a single IV administration of pafolacianine to male and female dogs, systemic exposure (C0, AUClast) to pafolacianine appeared similar between males and females at all dose levels (Table 3). Similar to rats, dog AUClast values were calculated from a range of concentration-time data with Tlast values varying from 5 minutes to 4 hours. In addition, there were limited dogs with reportable TK at 0.9 mg/kg (N=1-2). As a consequence, dose proportionality was not assessed for dogs. Terminal data were generally sparse (i.e., 2 or fewer measurable concentrations in the terminal phase, (FIG. 4). Similar to rat, parameters dependent on accurate determination of the terminal phase (AUCinf, T1/2, CL, Vz) were not reported.

ovarian cancer lesion = test: Randomized, multicenter, open-label study: detection of ovarian cancer lesions under fluorescent light; format: in vivo, human
Method: The safety and efficacy of the compositions disclosed herein was evaluated in a randomized, multicenter, open-label study. The study enrolled 178 women diagnosed with ovarian cancer or with high clinical suspicion of ovarian cancer scheduled to undergo primary surgical cytoreduction, interval debulking, or recurrent ovarian cancer surgery. One hundred and fifty women highly suspicious for or with confirmed ovarian cancer received a composition including pafolacianine (dosed at 0.025 mg/kg at least 1 hour before initiation of fluorescence imaging). Among them, 134 women with mean age 60 (range 33 to 81) years received both normal light imaging evaluation and fluorescence imaging evaluation (the Intent-to-Image set).
The study assessed the proportion of patients with at least one evaluable ovarian cancer lesion confirmed by central pathology that was detected with compositions including pafolacianine under fluorescent light but not under normal light or palpation and not otherwise identified for resection prior to surgery. The detection proportion was estimated in women who underwent both normal light and fluorescent light (Intent-to-Image Set), see Table 1.

[3] = Single IV dose toxicokinetics in rats; format: in vivo; conditions: Study Day 0; for AUC(0-t) / C0: rat, in vivo
Method: Following a single IV administration of pafolacianine to male and female rats, systemic exposure (AUClast) to pafolacianine appeared similar between males and females at the 46.3 mg/kg dose levels (Table 2). There was a slight trend for higher AUClast values in females versus males at the two lower dose levels; however, due to sparse sampling of blood, the significance of this slight trend could not be evaluated. Values for AUClast were calculated, but the time associated with the last measurable concentration was variable (Tlast; 5 min to 24 hr), which confounded the ability to assess dose proportionality. Terminal data were generally sparse and/or the terminal phase was not sufficiently defined (FIG. 4). Thus, parameters dependent on accurate determination of the terminal phase (AUCinf, T1/2, CL, Vz) were not reported.

[4] = Partitioning into red blood cells; format: in vitro ADME
FR = biological target: T1, FR (Homo sapiens, UniProt P15328); test: [3H]-folic acid competition binding on KB cells
T1 construct: KB cells (a derivative of HeLa cells) that over-express FR; endogenous in cells; host or cells: KB cells (HeLa derivative)

[5] = Plasma protein binding, equilibrium dialysis, dog plasma; format: in vitro ADME; conditions: Beagle, read-out: mean (±SD) percentage of plasma protein bound (converted)
Method: (§1) The plasma protein binding of pafolacianine was studied in vitro in fresh human, Sprague Dawley rat, and Beagle dog plasma using equilibrium dialysis. Pafolacianine was introduced into plasma samples, in duplicate, resulting in a final concentration of 5 μM. The mean (±SD) percentage of plasma protein bound pafolacianine was 99.1±0.1%, 98.6±0.1%, and 93.7±1.5% for rat, dog and human, respectively. Pafolacianine was highly bound to plasma protein in all species examined.

[6] = Plasma protein binding, equilibrium dialysis, rat plasma; format: in vitro ADME; conditions: Sprague Dawley, read-out: mean (±SD) percentage of plasma protein bound (converted)
Method: as §1

[7] = female dogs, 0.9 mg/kg single IV, Study Day 0, N = 1
[8] = female dogs, 9.3 mg/kg single IV, Study Day 0
[9] = female dogs, 13.9 mg/kg single IV, Study Day 0
[10] = male dogs, 0.9 mg/kg single IV, Study Day 0, N = 2
[11] = male dogs, 9.3 mg/kg single IV, Study Day 0
[12] = male dogs, 13.9 mg/kg single IV, Study Day 0
[13] = female rats, 3.1 mg/kg single IV
[14] = female rats, 30.8 mg/kg single IV
[15] = female rats, 46.3 mg/kg single IV
[16] = male rats, 30.8 mg/kg single IV
[17] = male rats, 46.3 mg/kg single IV

T1 sequence (P15328 25-234): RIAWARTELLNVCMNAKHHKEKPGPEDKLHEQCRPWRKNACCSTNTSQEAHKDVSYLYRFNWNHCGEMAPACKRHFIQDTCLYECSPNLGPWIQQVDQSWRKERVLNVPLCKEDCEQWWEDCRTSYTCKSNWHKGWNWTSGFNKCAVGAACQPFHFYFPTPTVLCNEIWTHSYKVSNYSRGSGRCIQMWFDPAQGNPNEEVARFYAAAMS

In the case of `CC1(C)C(=CC=C2CCCC(C=CC3=[N+](CCCCS(=O)(=O)[O-])c4ccc(S(=O)(=O)O)cc4C3(C)C)=C2Oc2ccc(CC(NC(=O)c3ccc(NCc4cnc5nc(N)[nH]c(=O)c5n4)cc3)C(=O)O)cc2)N(CCCCS(=O)(=O)O)c2ccc(S(=O)(=O)O)cc21` (centres unmarked) [pafolacianine], the “fluorescence in all other normal tissues” value ([1]; 2.5 hours after IV 10 nmol) is reported as “little or no fluorescence signal”, the fluorescence in kidneys ([1]; 2.5 hours after IV 10 nmol) is reported as “fluorescence signal also observed in the kidneys” and the fluorescence in tumors ([1]; 2.5 hours after IV 10 nmol) is reported as “fluorescence primarily in the tumors”. The “tumor-to-normal tissue fluorescence ratios” value ([1]; 2.5 hours after IV 10 nmol) was “excellent”, the “tumor fluorescence compared with other folate-conjugated near infrared dyes (LS288, IR800, ZW800)” value ([1]; mouse, in vivo) was “brighter” and the AUC(0-t) [2, 7] was 362 ng·h/mL. It also gave a C0 [2, 7] of 4.36 µg/mL, an AUC(0-t) [2, 8] of 17600 ng·h/mL and a C0 [2, 8] of 61.5 µg/mL. It also gave an AUC(0-t) [2, 9] of 44000 ng·h/mL, a C0 [2, 9] of 109 µg/mL and an AUC(0-t) [2, 10] of 397 ng·h/mL. The C0 [2, 10] was 3.79 µg/mL, the AUC(0-t) [2, 11] was 16800 ng·h/mL and the C0 [2, 11] was 58.5 µg/mL. For the same compound, the AUC(0-t) [2, 12] was 42100 ng·h/mL, the C0 [2, 12] was 107 µg/mL and the “DN AUClast” value [2, 7] was 0.402 (μg · h/mL)/(mg/kg). The “DN AUClast” value [2, 8] was 1.89 (μg · h/mL)/(mg/kg), the “DN AUClast” value [2, 9] was 3.17 (μg · h/mL)/(mg/kg) and the “DN AUClast” value [2, 10] was 0.442 (μg · h/mL)/(mg/kg). For the same compound, the “DN AUClast” value [2, 11] was 1.81 (μg · h/mL)/(mg/kg), the “DN AUClast” value [2, 12] was 3.03 (μg · h/mL)/(mg/kg) and the “Patients with at least one confirmed ovarian cancer evaluable lesion, Proportion (%)” value (ovarian cancer lesion; detected under fluorescent light but not normal light or palpation, Intent-to-Image set N = 134, 0.025 mg/kg) was 0.269 (26.9%). For the same compound, the “Patient-level false positive rate” value (ovarian cancer lesion; near-infrared fluorescent light, ovarian cancer lesions confirmed by central pathology) was 20.2%, the “DN AUClast” value [3, 13] was 0.816 (μg · h/mL)/(mg/kg) and the “DN AUClast” value [3, 14] was 5.39 (μg · h/mL)/(mg/kg). For the same compound, the “DN AUClast” value [3, 15] was 5.51 (μg · h/mL)/(mg/kg), the “DN AUClast” value ([3]; male rats, 3.1 mg/kg single IV) was 0.184 (μg · h/mL)/(mg/kg) and the “DN AUClast” value [3, 16] was 3.86 (μg · h/mL)/(mg/kg). The “DN AUClast” value [3, 17] was 6.18 (μg · h/mL)/(mg/kg), the AUC(0-t) [3, 13] was 2530 ng·h/mL and the C0 [3, 13] was 16.2 µg/mL. It also gave an AUC(0-t) [3, 14] of 166000 ng·h/mL, a C0 [3, 14] of 178 µg/mL and an AUC(0-t) [3, 15] of 255000 ng·h/mL. It also gave a C0 [3, 15] of 231 µg/mL, an AUC(0-t) ([3]; male rats, 3.1 mg/kg single IV) of 570 ng·h/mL and a C0 ([3]; male rats, 3.1 mg/kg single IV) of 6.87 µg/mL. For the same compound, the AUC(0-t) [3, 16] was 119000 ng·h/mL, the C0 [3, 16] was 65.7 µg/mL and the AUC(0-t) [3, 17] was 286000 ng·h/mL. For the same compound, the C0 [3, 17] was 174 µg/mL, the “partitioning into red blood cells” value [4] was “No notable partitioning” and the “competition with [3H]-folic acid for the receptor” value (FR) was “competed well”. The fraction unbound at 5 μM [5] was 0.014 and the fraction unbound at 5 μM [6] was 0.009.
